From article PMC4767141, “Discovery of Potent, Orally Bioavailable, Small-Molecule Inhibitors of WNT Signaling from a Cell-Based Pathway Screen” (Journal of Medicinal Chemistry, 2015)
Several values for one entry are separate records, joined by “and”; a condition that tells them apart may be missing. Equal values may be shown once.

How the values were obtained:
PDGFRBETA = target: T1, PDGFRBETA (Homo sapiens, UniProt P09619); assay: Millipore kinase panel; format: biochemical; settings: read-out: % Control
T1 construct: purchased Millipore KinaseProfiler (kinases); Cerep (receptors and ion channels)

PKCMU = target: T2, PKCMU (Homo sapiens, UniProt Q15139); assay: Millipore kinase panel; format: biochemical; settings: read-out: % Control
T2 construct: purchased Millipore KinaseProfiler (kinases); Cerep (receptors and ion channels)

VRK2 = target: T3, VRK2 (Homo sapiens, UniProt Q86Y07); assay: Millipore kinase panel; format: biochemical; settings: read-out: % Control
T3 construct: purchased Millipore KinaseProfiler (kinases); Cerep (receptors and ion channels)

PLK1 = target: T4, PLK1 (Homo sapiens, UniProt P53350); assay: Millipore kinase panel; format: biochemical; settings: read-out: % Control
T4 construct: purchased Millipore KinaseProfiler (kinases); Cerep (receptors and ion channels)

PIM-3 = target: T5, PIM-3 (Homo sapiens, UniProt Q86V86); assay: Millipore kinase panel; format: biochemical; settings: read-out: % Control
T5 construct: purchased Millipore KinaseProfiler (kinases); Cerep (receptors and ion channels)

JAK2 = target: T6, JAK2 (Homo sapiens, UniProt O60674); assay: Millipore kinase panel; format: biochemical; settings: read-out: % Control
T6 construct: purchased Millipore KinaseProfiler (kinases); Cerep (receptors and ion channels)

MUSK = target: T7, MUSK (Homo sapiens, UniProt O15146); assay: Millipore kinase panel; format: biochemical; settings: read-out: % Control
T7 construct: purchased Millipore KinaseProfiler (kinases); Cerep (receptors and ion channels)

5-HT7 (h) = target: T8, 5-HT7 (h) (Homo sapiens, UniProt P34969); assay: CEREP binding panel; settings: agonist radioligand, read-out: % Inhibition of Control Specific Binding
T8 construct: purchased Millipore KinaseProfiler (kinases); Cerep (receptors and ion channels)

PAK4 = target: T9, PAK4 (Homo sapiens, UniProt O96013); assay: Millipore kinase panel; format: biochemical; settings: read-out: % Control
T9 construct: purchased Millipore KinaseProfiler (kinases); Cerep (receptors and ion channels)

WNK2 = target: T10, WNK2 (Homo sapiens, UniProt Q9Y3S1); assay: Millipore kinase panel; format: biochemical; settings: read-out: % Control
T10 construct: purchased Millipore KinaseProfiler (kinases); Cerep (receptors and ion channels)

TIE2 = target: T11, TIE2 (Homo sapiens, UniProt Q02763); assay: Millipore kinase panel; format: biochemical; settings: read-out: % Control
T11 construct: purchased Millipore KinaseProfiler (kinases); Cerep (receptors and ion channels)

α2 (non-selective) = assay: CEREP binding panel; settings: 10 μM, antagonist radioligand
SRC = target: T12, SRC (Homo sapiens, UniProt P12931); assay: Millipore kinase panel; format: biochemical; settings: read-out: % Control
T12 construct: purchased Millipore KinaseProfiler (kinases); Cerep (receptors and ion channels)

TSSK1 = target: T13, TSSK1 (Homo sapiens, UniProt Q9BXA7); assay: Millipore kinase panel; format: biochemical; settings: read-out: % Control
T13 construct: purchased Millipore KinaseProfiler (kinases); Cerep (receptors and ion channels)

CAMKIV = target: T14, CAMKIV (Homo sapiens, UniProt Q16566); assay: Millipore kinase panel; format: biochemical; settings: read-out: % Control
T14 construct: purchased Millipore KinaseProfiler (kinases); Cerep (receptors and ion channels)

MKK4 = assay: Millipore kinase panel; format: biochemical; settings: 1 μM, ATP at Km
SGK2 = target: T15, SGK2 (Homo sapiens, UniProt Q9HBY8); assay: Millipore kinase panel; format: biochemical; settings: read-out: % Control
T15 construct: purchased Millipore KinaseProfiler (kinases); Cerep (receptors and ion channels)

CCK1 (CCKA) (h) = target: T16, CCK1 (CCKA) (h) (Homo sapiens, UniProt P32238); assay: CEREP binding panel; settings: agonist radioligand, read-out: % Inhibition of Control Specific Binding
T16 construct: purchased Millipore KinaseProfiler (kinases); Cerep (receptors and ion channels)

FMS = target: T17, FMS (Homo sapiens, UniProt P07333); assay: Millipore kinase panel; format: biochemical; settings: read-out: % Control
T17 construct: purchased Millipore KinaseProfiler (kinases); Cerep (receptors and ion channels)

A3 (h) = target: T18, A3 (h) (Homo sapiens, UniProt P0DMS8); assay: CEREP binding panel; settings: agonist radioligand, read-out: % Inhibition of Control Specific Binding
T18 construct: purchased Millipore KinaseProfiler (kinases); Cerep (receptors and ion channels)

TLK2 = target: T19, TLK2 (Homo sapiens, UniProt Q86UE8); assay: Millipore kinase panel; format: biochemical; settings: read-out: % Control
T19 construct: purchased Millipore KinaseProfiler (kinases); Cerep (receptors and ion channels)

AXL = target: T20, AXL (Homo sapiens, UniProt P30530); assay: Millipore kinase panel; format: biochemical; settings: read-out: % Control
T20 construct: purchased Millipore KinaseProfiler (kinases); Cerep (receptors and ion channels)

LIMK1 = target: T21, LIMK1 (Homo sapiens, UniProt P53667); assay: Millipore kinase panel; format: biochemical; settings: read-out: % Control
T21 construct: purchased Millipore KinaseProfiler (kinases); Cerep (receptors and ion channels)

KDR = target: T22, KDR (Homo sapiens, UniProt P35968); assay: Millipore kinase panel; format: biochemical; settings: read-out: % Control
T22 construct: purchased Millipore KinaseProfiler (kinases); Cerep (receptors and ion channels)

SNK = target: T23, SNK (Homo sapiens, UniProt Q9NYY3); assay: Millipore kinase panel; format: biochemical; settings: read-out: % Control
T23 construct: purchased Millipore KinaseProfiler (kinases); Cerep (receptors and ion channels)

CKIT = target: T24, CKIT (Homo sapiens, UniProt P10721); assay: Millipore kinase panel; format: biochemical; settings: read-out: % Control
T24 construct: purchased Millipore KinaseProfiler (kinases); Cerep (receptors and ion channels)

FLT4 = target: T25, FLT4 (Homo sapiens, UniProt P35916); assay: Millipore kinase panel; format: biochemical; settings: read-out: % Control
T25 construct: purchased Millipore KinaseProfiler (kinases); Cerep (receptors and ion channels)

BLK = assay: Millipore kinase panel; format: biochemical; settings: 1 μM, ATP at Km
JNK2ALPHA2 = target: T26, JNK2ALPHA2 (Homo sapiens, UniProt P45984); assay: Millipore kinase panel; format: biochemical; settings: read-out: % Control
T26 construct: purchased Millipore KinaseProfiler (kinases); Cerep (receptors and ion channels)

LKB1 = target: T27, LKB1 (Homo sapiens, UniProt Q15831); assay: Millipore kinase panel; format: biochemical; settings: read-out: % Control
T27 construct: purchased Millipore KinaseProfiler (kinases); Cerep (receptors and ion channels)

EPHB2 = target: T28, EPHB2 (Homo sapiens, UniProt P29323); assay: Millipore kinase panel; format: biochemical; settings: read-out: % Control
T28 construct: purchased Millipore KinaseProfiler (kinases); Cerep (receptors and ion channels)

PAR-1BALPHA = target: T29, PAR-1BALPHA (Homo sapiens, UniProt Q7KZI7); assay: Millipore kinase panel; format: biochemical; settings: read-out: % Control
T29 construct: purchased Millipore KinaseProfiler (kinases); Cerep (receptors and ion channels)

PDGFRALPHA = target: T30, PDGFRALPHA (Homo sapiens, UniProt P16234); assay: Millipore kinase panel; format: biochemical; settings: read-out: % Control
T30 construct: purchased Millipore KinaseProfiler (kinases); Cerep (receptors and ion channels)

β2 (h) = target: T31, β2 (h) (Homo sapiens, UniProt P07550); assay: CEREP binding panel; settings: agonist radioligand, read-out: % Inhibition of Control Specific Binding
T31 construct: purchased Millipore KinaseProfiler (kinases); Cerep (receptors and ion channels)

MEK1 = target: T32, MEK1 (Homo sapiens, UniProt Q02750); assay: Millipore kinase panel; format: biochemical; settings: read-out: % Control
T32 construct: purchased Millipore KinaseProfiler (kinases); Cerep (receptors and ion channels)

MARK1 = target: T33, MARK1 (Homo sapiens, UniProt Q9P0L2); assay: Millipore kinase panel; format: biochemical; settings: read-out: % Control
T33 construct: purchased Millipore KinaseProfiler (kinases); Cerep (receptors and ion channels)

VPAC1 (VIP1) (h) = target: T34, VPAC1 (VIP1) (h) (Homo sapiens, UniProt P32241); assay: CEREP binding panel; settings: agonist radioligand, read-out: % Inhibition of Control Specific Binding
T34 construct: purchased Millipore KinaseProfiler (kinases); Cerep (receptors and ion channels)

MNK2 = target: T35, MNK2 (Homo sapiens, UniProt Q9HBH9); assay: Millipore kinase panel; format: biochemical; settings: read-out: % Control
T35 construct: purchased Millipore KinaseProfiler (kinases); Cerep (receptors and ion channels)

EEF-2K = target: T36, EEF-2K (Homo sapiens, UniProt O00418); assay: Millipore kinase panel; format: biochemical; settings: read-out: % Control
T36 construct: purchased Millipore KinaseProfiler (kinases); Cerep (receptors and ion channels)

CB1 (h) = target: T37, CB1 (h) (Homo sapiens, UniProt P21554); assay: CEREP binding panel; settings: 10 μM, agonist radioligand
T37 construct: purchased Millipore KinaseProfiler (kinases); Cerep (receptors and ion channels)

PI3 KINASE (P110A/P85A) = assay: Millipore kinase panel; format: biochemical; settings: 1 μM, ATP at Km
MKK7BETA = target: T38, MKK7BETA (Homo sapiens, UniProt O14733); assay: Millipore kinase panel; format: biochemical; settings: read-out: % Control
T38 construct: purchased Millipore KinaseProfiler (kinases); Cerep (receptors and ion channels)

MAPKAP-K3 = target: T39, MAPKAP-K3 (Homo sapiens, UniProt Q16644); assay: Millipore kinase panel; format: biochemical; settings: read-out: % Control
T39 construct: purchased Millipore KinaseProfiler (kinases); Cerep (receptors and ion channels)

CLK2 = target: T40, CLK2 (Homo sapiens, UniProt P49760); assay: Millipore kinase panel; format: biochemical; settings: read-out: % Control
T40 construct: purchased Millipore KinaseProfiler (kinases); Cerep (receptors and ion channels)

FAK = target: T41, FAK (Homo sapiens, UniProt Q05397); assay: Millipore kinase panel; format: biochemical; settings: read-out: % Control
T41 construct: purchased Millipore KinaseProfiler (kinases); Cerep (receptors and ion channels)

T27 sequence (Q15831 whole entry): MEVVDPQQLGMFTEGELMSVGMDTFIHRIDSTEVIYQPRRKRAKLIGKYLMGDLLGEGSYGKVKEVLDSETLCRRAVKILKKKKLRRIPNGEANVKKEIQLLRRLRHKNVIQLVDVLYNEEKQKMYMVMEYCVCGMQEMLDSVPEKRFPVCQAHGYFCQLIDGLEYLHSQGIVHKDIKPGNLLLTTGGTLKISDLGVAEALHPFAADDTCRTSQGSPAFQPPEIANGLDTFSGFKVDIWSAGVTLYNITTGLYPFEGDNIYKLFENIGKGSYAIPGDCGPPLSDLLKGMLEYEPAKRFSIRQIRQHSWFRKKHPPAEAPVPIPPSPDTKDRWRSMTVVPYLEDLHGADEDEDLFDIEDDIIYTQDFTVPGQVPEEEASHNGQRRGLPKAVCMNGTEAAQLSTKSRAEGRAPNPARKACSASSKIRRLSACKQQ
T27 sequence (Q7RTN6 whole entry partner): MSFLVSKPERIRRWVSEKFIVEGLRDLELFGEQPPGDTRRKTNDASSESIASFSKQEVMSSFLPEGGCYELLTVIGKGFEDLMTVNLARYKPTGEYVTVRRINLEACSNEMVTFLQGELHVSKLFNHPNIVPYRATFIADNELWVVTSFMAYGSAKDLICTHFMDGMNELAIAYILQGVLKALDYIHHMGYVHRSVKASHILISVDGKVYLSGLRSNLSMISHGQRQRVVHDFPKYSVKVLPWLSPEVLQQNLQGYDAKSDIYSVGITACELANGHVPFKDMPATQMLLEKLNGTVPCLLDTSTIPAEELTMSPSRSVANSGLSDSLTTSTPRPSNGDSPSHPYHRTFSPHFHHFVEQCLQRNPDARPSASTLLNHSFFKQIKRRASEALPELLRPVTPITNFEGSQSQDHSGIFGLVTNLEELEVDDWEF
T27 sequence (Q9Y376 whole entry partner): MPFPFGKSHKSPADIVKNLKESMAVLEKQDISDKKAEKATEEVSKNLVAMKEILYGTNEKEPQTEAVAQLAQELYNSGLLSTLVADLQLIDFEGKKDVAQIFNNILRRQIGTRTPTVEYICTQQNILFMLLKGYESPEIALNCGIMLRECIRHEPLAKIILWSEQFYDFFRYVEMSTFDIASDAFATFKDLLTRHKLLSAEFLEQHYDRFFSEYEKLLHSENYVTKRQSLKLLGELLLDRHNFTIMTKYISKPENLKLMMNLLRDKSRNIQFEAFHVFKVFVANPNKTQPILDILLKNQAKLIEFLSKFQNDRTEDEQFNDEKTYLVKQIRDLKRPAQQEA
T21 sequence (P53667 whole entry): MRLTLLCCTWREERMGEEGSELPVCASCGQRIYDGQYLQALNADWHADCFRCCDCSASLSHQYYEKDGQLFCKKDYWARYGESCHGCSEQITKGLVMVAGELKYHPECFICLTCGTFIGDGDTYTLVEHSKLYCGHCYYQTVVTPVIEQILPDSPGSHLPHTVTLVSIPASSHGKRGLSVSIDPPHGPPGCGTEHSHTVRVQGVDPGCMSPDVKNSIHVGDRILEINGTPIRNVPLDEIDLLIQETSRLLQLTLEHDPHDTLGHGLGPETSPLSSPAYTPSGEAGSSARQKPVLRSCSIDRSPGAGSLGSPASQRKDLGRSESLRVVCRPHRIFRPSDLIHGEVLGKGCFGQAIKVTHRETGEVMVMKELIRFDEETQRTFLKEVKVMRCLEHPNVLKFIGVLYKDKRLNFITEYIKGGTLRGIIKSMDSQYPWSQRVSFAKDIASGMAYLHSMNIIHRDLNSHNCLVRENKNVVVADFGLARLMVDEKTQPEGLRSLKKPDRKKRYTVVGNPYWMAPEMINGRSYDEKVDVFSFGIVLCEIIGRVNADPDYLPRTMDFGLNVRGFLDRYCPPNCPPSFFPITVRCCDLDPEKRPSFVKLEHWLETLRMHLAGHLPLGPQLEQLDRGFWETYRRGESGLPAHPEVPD
T23 sequence (Q9NYY3 whole entry): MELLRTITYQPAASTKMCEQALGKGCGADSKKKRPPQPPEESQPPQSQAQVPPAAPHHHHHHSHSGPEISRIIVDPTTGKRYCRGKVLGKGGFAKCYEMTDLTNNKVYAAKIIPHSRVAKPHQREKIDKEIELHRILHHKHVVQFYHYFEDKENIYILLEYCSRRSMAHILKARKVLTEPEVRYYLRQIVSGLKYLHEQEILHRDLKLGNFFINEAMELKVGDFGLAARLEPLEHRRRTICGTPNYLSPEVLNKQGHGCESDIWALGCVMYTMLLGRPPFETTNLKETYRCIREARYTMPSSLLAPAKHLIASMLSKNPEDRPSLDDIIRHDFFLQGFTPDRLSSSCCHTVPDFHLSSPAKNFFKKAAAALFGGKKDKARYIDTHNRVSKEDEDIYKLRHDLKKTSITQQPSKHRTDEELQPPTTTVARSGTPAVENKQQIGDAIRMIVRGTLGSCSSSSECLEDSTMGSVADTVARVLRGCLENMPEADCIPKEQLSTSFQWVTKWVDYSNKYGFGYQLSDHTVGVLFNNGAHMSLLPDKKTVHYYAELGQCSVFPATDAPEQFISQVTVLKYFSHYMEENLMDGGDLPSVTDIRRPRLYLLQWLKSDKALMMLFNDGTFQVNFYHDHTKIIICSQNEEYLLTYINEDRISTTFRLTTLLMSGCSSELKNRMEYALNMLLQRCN
T19 sequence (Q86UE8 whole entry): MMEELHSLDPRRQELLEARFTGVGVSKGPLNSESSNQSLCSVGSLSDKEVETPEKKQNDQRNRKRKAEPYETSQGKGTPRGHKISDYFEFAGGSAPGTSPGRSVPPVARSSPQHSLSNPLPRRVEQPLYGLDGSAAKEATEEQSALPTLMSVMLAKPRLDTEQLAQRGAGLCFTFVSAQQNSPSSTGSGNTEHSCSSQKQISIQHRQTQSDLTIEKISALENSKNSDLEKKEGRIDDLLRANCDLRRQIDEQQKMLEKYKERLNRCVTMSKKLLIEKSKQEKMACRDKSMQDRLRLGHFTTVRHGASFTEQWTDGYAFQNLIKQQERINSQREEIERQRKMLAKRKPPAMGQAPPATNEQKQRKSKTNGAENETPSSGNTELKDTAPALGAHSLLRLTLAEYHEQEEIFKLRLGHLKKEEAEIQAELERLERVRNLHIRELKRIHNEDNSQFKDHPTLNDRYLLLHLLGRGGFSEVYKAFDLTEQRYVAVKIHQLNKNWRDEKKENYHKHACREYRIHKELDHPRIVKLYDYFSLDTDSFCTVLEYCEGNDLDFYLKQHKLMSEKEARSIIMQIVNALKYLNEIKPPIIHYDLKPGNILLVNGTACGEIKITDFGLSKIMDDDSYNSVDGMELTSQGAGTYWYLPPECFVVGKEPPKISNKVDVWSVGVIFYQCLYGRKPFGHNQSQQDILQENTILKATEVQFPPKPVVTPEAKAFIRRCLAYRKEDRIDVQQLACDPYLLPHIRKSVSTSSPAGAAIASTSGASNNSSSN
T12 sequence (P12931 whole entry): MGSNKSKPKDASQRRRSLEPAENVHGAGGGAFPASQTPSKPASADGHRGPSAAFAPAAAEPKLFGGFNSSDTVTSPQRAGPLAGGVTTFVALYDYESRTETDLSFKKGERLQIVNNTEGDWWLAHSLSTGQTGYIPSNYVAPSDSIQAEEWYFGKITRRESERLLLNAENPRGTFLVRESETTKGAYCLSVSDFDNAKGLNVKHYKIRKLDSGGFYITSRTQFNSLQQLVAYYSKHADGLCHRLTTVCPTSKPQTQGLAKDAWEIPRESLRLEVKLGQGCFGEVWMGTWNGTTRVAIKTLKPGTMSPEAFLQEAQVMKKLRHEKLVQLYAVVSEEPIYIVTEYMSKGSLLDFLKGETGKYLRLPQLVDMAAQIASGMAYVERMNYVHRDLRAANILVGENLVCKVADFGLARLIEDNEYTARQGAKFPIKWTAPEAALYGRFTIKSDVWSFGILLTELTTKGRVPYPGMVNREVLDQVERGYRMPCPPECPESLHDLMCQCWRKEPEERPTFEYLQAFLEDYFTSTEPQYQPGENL
T20 sequence (P30530 26-894): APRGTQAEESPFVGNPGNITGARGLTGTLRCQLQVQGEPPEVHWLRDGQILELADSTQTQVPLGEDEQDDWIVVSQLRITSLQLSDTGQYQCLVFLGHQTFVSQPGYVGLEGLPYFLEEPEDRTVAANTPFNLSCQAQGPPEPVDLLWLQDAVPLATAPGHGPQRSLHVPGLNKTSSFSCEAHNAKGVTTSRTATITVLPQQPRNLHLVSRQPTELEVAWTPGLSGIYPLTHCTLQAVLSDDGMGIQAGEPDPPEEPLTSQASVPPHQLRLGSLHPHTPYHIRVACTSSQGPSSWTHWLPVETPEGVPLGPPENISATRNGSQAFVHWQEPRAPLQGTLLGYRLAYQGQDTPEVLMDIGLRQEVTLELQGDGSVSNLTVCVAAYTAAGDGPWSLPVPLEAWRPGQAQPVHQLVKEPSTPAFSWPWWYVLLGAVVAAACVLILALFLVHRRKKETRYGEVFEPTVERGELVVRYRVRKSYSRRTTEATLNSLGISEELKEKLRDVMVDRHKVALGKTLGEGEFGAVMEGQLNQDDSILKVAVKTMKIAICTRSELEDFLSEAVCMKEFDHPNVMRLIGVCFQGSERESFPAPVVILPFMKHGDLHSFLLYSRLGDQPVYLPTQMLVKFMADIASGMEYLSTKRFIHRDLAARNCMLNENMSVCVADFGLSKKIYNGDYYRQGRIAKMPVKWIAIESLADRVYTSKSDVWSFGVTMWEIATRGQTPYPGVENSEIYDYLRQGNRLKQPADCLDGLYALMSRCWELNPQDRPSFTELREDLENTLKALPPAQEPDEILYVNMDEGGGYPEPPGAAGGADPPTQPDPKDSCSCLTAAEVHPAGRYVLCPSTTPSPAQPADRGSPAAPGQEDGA

`Cn1cc(-c2ccc(-c3cncc(Cl)c3N3CCC4(CCNC4=O)CC3)cc2)cn1` [Compound 74, 8-(3-Chloro-5-(4-(1-methyl-1H-pyrazol-4-yl)phenyl)pyridin-4-yl)-2,8-diazaspiro[4.5]decan-1-one] showed a remaining activity at 1 µM (PDGFRBETA) of -6%, a remaining activity at 1 µM (PKCMU) of -1% and a remaining activity at 1 µM (VRK2) of -2%. It also gave a remaining activity at 1 µM (PLK1) of -4%, a remaining activity at 1 µM (PIM-3) of 8% and a remaining activity at 1 µM (JAK2) of 11%. For the same compound, the remaining activity at 1 µM (MUSK) was 6%, the inhibition at 10 µM (5-HT7 (h)) was 1% and the remaining activity at 1 µM (PAK4) was 9%. The remaining activity at 1 µM (WNK2) was 0%, the remaining activity at 1 µM (TIE2) was -25% and the “% Inhibition of Control Specific Binding” value (α2 (non-selective)) was 0%. It also gave a remaining activity at 1 µM (SRC) of -6%, a remaining activity at 1 µM (TSSK1) of 2% and a remaining activity at 1 µM (CAMKIV) of 6%. For the same compound, the “% Control” value (MKK4) was 13%, the remaining activity at 1 µM (SGK2) was -17% and the inhibition at 10 µM (CCK1 (CCKA) (h)) was 2%. The remaining activity at 1 µM (FMS) was -21%, the inhibition at 10 µM (A3 (h)) was 17% and the remaining activity at 1 µM (TLK2) was -9%. For the same compound, the remaining activity at 1 µM (AXL) was -18%, the remaining activity at 1 µM (LIMK1) was 0% and the remaining activity at 1 µM (KDR) was 10%. It also gave a remaining activity at 1 µM (SNK) of -1%, a remaining activity at 1 µM (CKIT) of 13% and a remaining activity at 1 µM (FLT4) of -23%. For the same compound, the “% Control” value (BLK) was 0% and 6%, the remaining activity at 1 µM (JNK2ALPHA2) was 5% and the remaining activity at 1 µM (LKB1) was 5%. The remaining activity at 1 µM (EPHB2) was 7%, the remaining activity at 1 µM (PAR-1BALPHA) was 4% and the remaining activity at 1 µM (PDGFRALPHA) was -5%. For the same compound, the inhibition at 10 µM (β2 (h)) was 6%, the remaining activity at 1 µM (MEK1) was 10% and the remaining activity at 1 µM (MARK1) was 2%. It also gave an inhibition at 10 µM (VPAC1 (VIP1) (h)) of 0%, a remaining activity at 1 µM (MNK2) of 2% and a remaining activity at 1 µM (EEF-2K) of 15%. The “% Inhibition of Control Specific Binding” value (CB1 (h)) was 2%, the “% Control” value (PI3 KINASE (P110A/P85A)) was -1% and the remaining activity at 1 µM (MKK7BETA) was 68%. For the same compound, the remaining activity at 1 µM (MAPKAP-K3) was 7%, the remaining activity at 1 µM (CLK2) was -19% and the remaining activity at 1 µM (FAK) was -5%.
